Results reported in patent US7816353B2 (Exelixis, Inc., priority 2003, dated 2010).

How the values were obtained:
Assay type in all cases: biochemical
PDK1 = target: T1, PDK1 (Homo sapiens, UniProt O15530); assay: PDK1 Kinase Assay (Luciferase-Coupled Chemiluminescent Kinase assay, LCCA); details: human PDK1 kinase domain residues M51-T359; 0.5 μM ATP; read-out: PDK-1 IC50
T1 construct: human PDK1 kinase domain residues M51-T359; made in house
T1 sequence (O15530 51-359): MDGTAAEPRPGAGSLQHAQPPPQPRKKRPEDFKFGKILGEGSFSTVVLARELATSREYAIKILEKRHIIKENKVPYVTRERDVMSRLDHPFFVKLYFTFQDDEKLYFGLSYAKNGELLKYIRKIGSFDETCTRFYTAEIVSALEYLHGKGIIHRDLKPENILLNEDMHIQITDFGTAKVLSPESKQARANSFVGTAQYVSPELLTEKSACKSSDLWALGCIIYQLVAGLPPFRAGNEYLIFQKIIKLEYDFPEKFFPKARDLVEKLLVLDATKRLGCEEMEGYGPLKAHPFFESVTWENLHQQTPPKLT
Description: (§1) Kinase activity and compound inhibition are investigated using one or more of the three assay formats described below. The ATP concentrations for each assay are selected to be close to the Michaelis-Menten constant (KM) for each individual kinase. Dose-response experiments are performed at 10 different inhibitor concentrations in a 384-well plate format. The data are fitted to four-parameter equation (2) below; where Y is the observed signal, X is the inhibitor concentration, Min is the background signal in the absence of enzyme (0% enzyme activity), Max is the signal in the absence of inhibitor (100% enzyme activity), IC50 is the inhibitor concentration at 50% enzyme inhibition and H represents the empirical Hill's slope to measure the cooperativity. Typically H is close to unity. Y=Min+(Max−Min)/(1+(X/IC50)^H) Equation (2) p70S6 Kinase Assay
Biochemical activity of PDK1 kinase was assessed using a Luciferase-Coupled Chemiluminescent Kinase assay (LCCA) format. Kinase activity was measured as the percent ATP remaining following the kinase reaction. Remaining ATP was detected by luciferase-luciferin-coupled chemiluminescence. Specifically, the reaction was initiated by mixing test compounds, 0.5 μM ATP, 0.6 μM PDKtide peptide and 6 nM PDK1 (baculovirus expressed human PDK1 kinase domain residues M51-T359) in a 20 uL assay buffer (20 mM Hepes pH 7.5, 1 mM CaCl2, 0.03% CHAPS, 2 mM DTT). The mixture is incubated at ambient temperature for 3 hours after which 20 μL luciferase-luciferin mix is added and the chemiluminescent signal read using a Wallac Victor2 reader. The luciferase-luciferin mix consists of 50 mM HEPES, pH 7.8, 8.5 μg/mL oxalic acid (pH 7.8), 5 (or 50) mM DTT, 0.4% Triton X-100, 0.25 mg/mL coenzyme A, 63 uM AMP, 28 μg/mL luciferin and 40,000 units/mL luciferase.

Akt1 = target: T2, Akt1 (Homo sapiens, UniProt P31749); assay: Akt1 Kinase Assay (Luciferase-Coupled Chemiluminescent Kinase assay, LCCA); details: human Akt1 kinase domain residues R144-A480, activated with PDK1; 1 μM ATP; read-out: Akt-1 IC50
T2 construct: made in house
Description: as §1
Biochemical activity of Akt1 kinase was assessed using a Luciferase-Coupled Chemiluminescent Kinase assay (LCCA) format. Kinase activity was measured as the percent ATP remaining following the kinase reaction. Remaining ATP was detected by luciferase-luciferin-coupled chemiluminescence. Specifically, the reaction was initiated by mixing test compounds, 1 μM ATP, 5 μM crosstide peptide and 1.3 nM Akt1 (baculovirus expressed human Akt1 kinase domain residues R144-A480, activated with PDK1) in a 20 uL assay buffer (20 mM Tris-HCL pH 7.5, 10 mM MgCl2, 0.01% Triton X-100, 1 mM DTT, 3 mM MnCl2). The mixture is incubated at ambient temperature for 3 hours after which 20 μL luciferase-luciferin mix is added and the chemiluminescent signal read using a Wallac Victor2 reader. The luciferase-luciferin mix consists of 50 mM HEPES, pH 7.8, 8.5 μg/mL oxalic acid (pH 7.8), 5 (or 50) mM DTT, 0.4% Triton X-100, 0.25 mg/mL coenzyme A, 63 uM AMP, 28 μg/mL luciferin and 40,000 units/mL luciferase.

p70S6K = target: T3, p70S6K (Homo sapiens, UniProt P23443, T412E); assay: p70S6 Kinase Assay (Luciferase-Coupled Chemiluminescent Kinase assay, LCCA); details: human p70S6 kinase domain residues 1-421, T412E; 5 μM ATP; read-out: p70S6K IC50
T3 construct: human p70S6 kinase domain residues 1-421, containing a T412E mutation; made in house
Method in brief: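 Luciferase-coupled chemiluminescence measured percent ATP remaining after the 2 h kinase reaction at ambient temperature, with ATP near the kinase's KM. Ten inhibitor concentrations were tested. IC50 was obtained from a Hill-equation fit.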

T2 sequence (P31749 144-480): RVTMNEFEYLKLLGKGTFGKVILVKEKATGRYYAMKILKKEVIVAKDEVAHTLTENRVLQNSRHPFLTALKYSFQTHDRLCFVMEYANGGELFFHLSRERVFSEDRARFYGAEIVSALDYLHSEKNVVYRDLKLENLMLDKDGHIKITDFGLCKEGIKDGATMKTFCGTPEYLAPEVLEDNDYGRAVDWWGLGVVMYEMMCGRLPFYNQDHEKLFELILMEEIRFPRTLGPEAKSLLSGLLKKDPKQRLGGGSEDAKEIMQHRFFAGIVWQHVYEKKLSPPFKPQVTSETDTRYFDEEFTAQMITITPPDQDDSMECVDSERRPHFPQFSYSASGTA
T3 sequence (P23443 1-421 T412E): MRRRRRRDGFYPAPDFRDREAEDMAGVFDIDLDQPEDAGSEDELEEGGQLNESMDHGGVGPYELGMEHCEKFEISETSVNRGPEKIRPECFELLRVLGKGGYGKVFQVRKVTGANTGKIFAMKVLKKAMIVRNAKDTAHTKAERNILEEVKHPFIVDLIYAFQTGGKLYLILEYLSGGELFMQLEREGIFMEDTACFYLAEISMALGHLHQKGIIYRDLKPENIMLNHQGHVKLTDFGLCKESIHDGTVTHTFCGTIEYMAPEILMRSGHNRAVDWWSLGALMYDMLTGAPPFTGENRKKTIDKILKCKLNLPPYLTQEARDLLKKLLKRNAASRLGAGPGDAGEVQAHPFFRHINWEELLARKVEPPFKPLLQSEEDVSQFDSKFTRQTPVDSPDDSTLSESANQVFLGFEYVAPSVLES

Compound	IC50 (PDK1) [nM]	IC50 (Akt1) [nM]	IC50 (p70S6K) [nM]
COc1ccc(OC)c(C(=O)CSc2nc(N)nc(SC)c2C#N)c1 [Example 30, 2-amino-4-({2-[2,5-bis(methyloxy)phenyl]-2-oxoethyl}thio)-6-(methylthio)pyrimidine-5-carbonitrile]	> 2000	> 2000	< 50
CSc1nc(N)nc(N(C)[C@@H](C)C(=O)Nc2cc(C(=O)NCCN3CCOCC3)cc(C(F)(F)F)c2)c1C#N [Example 135, 3-({N-[2-amino-5-cyano-6-(methylthio)pyrimidin-4-yl]-N-methyl-L-alanyl}amino)-N-(2-morpholin-4-ylethyl)-5-(trifluoromethyl)benzamide]	> 2000	> 2000	< 50
CSc1nc(N)nc(N[C@@H](CN(C)C)C(=O)Nc2cccc(C(F)(F)F)c2)c1C#N [Example 142, N~2~-[2-amino-5-cyano-6-(methylthio)pyrimidin-4-yl]-3-(dimethylamino)-N-[3-(trifluoromethyl)phenyl]-L-alaninamide]	> 2000	> 2000	50 to 500
Nc1cc(SCC(=O)Nc2cccc(C(F)(F)F)c2)nc(N)n1 [Example 33, 2-[(2,6-diaminopyrimidin-4-yl)thio]-N-[3-(trifluoromethyl)phenyl]acetamide]	> 2000	> 2000	< 50
CSc1nc(N)nc(SCC(=O)c2ccc3c(c2)NC(=O)CO3)c1C#N [Example 49, 2-amino-4-(methylthio)-6-{[2-oxo-2-(3-oxo-3,4-dihydro-2H-1,4-benzoxazin-6-yl)ethyl]thio}pyrimidine-5-carbonitrile]	> 2000	> 2000	50 to 500
CSc1nc(N)nc(N(C)[C@@H](C)C(=O)Nc2cccc(OC(F)(F)F)c2)c1C#N [Example 132, N~2~-[2-amino-5-cyano-6-(methylthio)pyrimidin-4-yl]-N~2~-methyl-N-{3-[(trifluoromethyl)oxy]phenyl}-L-alaninamide]	> 2000	> 2000	< 50
CSc1nc(N)nc(SCC(=O)Nc2ccccn2)c1C#N [Example 29, 2-{[2-amino-5-cyano-6-(methylthio)pyrimidin-4-yl]thio}-N-pyridin-2-ylacetamide]	> 2000	> 2000	< 50
CSc1nc(N)nc(SCC(=O)N(C)c2cccc(C(F)(F)F)c2)c1C#N [Example 16, 2-{(2-amino-5-cyano-6-(methylthio)pyrimidin-4-yl]thio}-N-methyl-N-[3-(trifluoromethyl)phenyl]acetamide]	> 2000	> 2000	50 to 500
CSc1nc(N)nc(N[C@@H](C)C(=O)Nc2cc(OCCN(C)C)cc(C(F)(F)F)c2)c1C#N [Example 137, N~2~-[2-amino-5-cyano-6-(methylthio)pyrimidin-4-yl]-N-[3-{[2-(dimethylamino)ethyl]oxy}-5-(trifluoromethyl)phenyl]-L-alaninamide]	> 2000	> 2000	< 50
CSc1nc(N)nc(SCC(=O)Nc2cc(C(F)(F)F)ccn2)c1C#N [Example 37, 2-{[2-amino-5-cyano-6-(methylthio)pyrimidin-4-yl]thio}-N-[4-(trifluoromethyl)pyridin-2-yl]acetamide]	> 2000	> 2000	< 50
CSc1nc(N)nc(SCC(=O)Nc2cccc(C(F)(F)F)c2)c1C#N [Example 21, 2-{[2-amino-5-cyano-6-(methylthio)pyrimidin-4-yl]thio}-N-[3-(trifluoromethyl)phenyl]acetamide]	> 2000	> 2000	< 50
CCOc1nc(N)nc(N(C)[C@@H](CCCCN)C(=O)Nc2cccc(C(F)(F)F)c2)c1C#N [Example 136, N~2~-[2-amino-5-cyano-6-(ethyloxy)pyrimidin-4-yl]-N~2~-methyl-N-[3-(trifluoromethyl)phenyl]-L-lysinamide]	> 2000	> 2000	< 50
CCOc1nc(N)nc(N[C@@H](CCCN)C(=O)Nc2cccc(C(F)(F)F)c2)c1C#N [Example 129, N^2-[2-amino-5-cyano-6-(ethyloxy)pyrimidin-4-yl]-N-[3-(trifluoromethyl)phenyl]-L-ornithinamide]	> 2000	> 2000	> 2000
CSc1nc(N)nc(SCC(=O)n2nc(C)cc2C)c1C#N [Example 26, 2-amino-4-{[2-(3,5-dimethyl-1H-pyrazol-1-yl)-2-oxoethyl]thio}-6-(methylthio)pyrimidine-5-carbonitrile]	> 2000	> 2000	< 50
CCOC(=O)c1sc(NC(=O)CSc2nc(N)nc(SC)c2C#N)c(C#N)c1C [Example 28, ethyl 5-[({[2-amino-5-cyano-6-(methylthio)pyrimidin-4-yl]thio}acetyl)amino]-4-cyano-3-methylthiophene-2-carboxylate]	> 2000	> 2000	< 50
CCc1nnc(NC(=O)CSc2nc(N)nc(SC)c2C#N)s1 [Example 24, 2-{[2-amino-5-cyano-6-(methylthio)pyrimidin-4-yl]thio}-N-(5-ethyl-1,3,4-thiadiazol-2-yl)acetamide]	> 2000	> 2000	< 50
CSc1nc(N)nc(SC2CCN(c3cccc(C(F)(F)F)c3)C2=O)c1C#N (stereo not drawn) [Example 35, 2-amino-4-(methylthio)-6-({2-oxo-1-[3-(trifluoromethyl)phenyl]pyrrolidin-3-yl}thio)pyrimidine-5-carbonitrile]	> 2000	> 2000	< 50
CSc1nc(N)nc(SCC(=O)Nc2cccc(C(F)(F)F)n2)c1C#N [Example 36, 2-{[2-amino-5-cyano-6-(methylthio)pyrimidin-4-yl]thio}-N-[6-(trifluoromethyl)pyridin-2-yl]acetamide]	> 2000	> 2000	< 50
CSc1nc(N)nc(NCC(=O)Nc2cccc(C(F)(F)F)c2)c1C#N [Example 20, N^2-[2-amino-5-cyano-6-(methylthio)pyrimidin-4-yl]-N-[3-(trifluoromethyl)phenyl]glycinamide]	> 2000	> 2000	50 to 500
CSc1nc(N)nc(SCC(=O)Nc2ccc(F)c(C(F)(F)F)c2)c1C#N [Example 31, 2-{[2-amino-5-cyano-6-(methylthio)pyrimidin-4-yl]thio}-N-[4-fluoro-3-(triuoromethyl)phenyl]acetamide]	> 2000	> 2000	< 50
CSc1cc(NCC(=O)Nc2cccc(C(F)(F)F)c2)nc(N)n1 [Example 5]	> 2000	> 2000	< 50
CSc1nc(N)nc(N[C@@H](C)C(=O)Nc2cc(C(=O)NO)cc(C(F)(F)F)c2)c1C#N [Example 141, 3-({N-[2-amino-5-cyano-6-(methylthio)pyrimidin-4yl]-L-alanyl}amino)-N-hydroxy-5-(trifluoromethyl)benzamide]	> 2000	> 2000	50 to 500
